Results on 18 compounds are retold here after patent publication US12240857B2 (priority 2017, dated 2025).

Data set [1] deals with EBOV mucin-domain-deleted glycoprotein pseudotyped VSV. The data set can be described thus: microbe, parasite or virus in culture. Format: cell-based, Zaire ebolavirus. As to conditions: Zaire ebolavirus, Vero, read-out: EC50 EBOV.
The next data set can be described thus: in vitro. The conditions noted are these: African green monkey, CC50.
Data set [2] relates to BDBV mucin-domain-deleted glycoprotein pseudotyped VSV. As to the kind of experiment: microbe, parasite or virus in culture. Format: cell-based, Bundibugyo ebolavirus. As to conditions: Vesicular stomatitis virus, Vero, read-out: EC50 BDBV.

Molecules are shown by their SMILES.

For `O=C(CC12CC3CC(C1)CC(c1ccccc1)(C3)C2)NCC(=O)NC1CCN(Cc2ccccc2)CC1` [Example A12], the EC50 in data set [1] was determined as 360 nM; in data set [2], 430 nM. For the same compound, the CC50 in the data set “in vitro” came to 2500 nM.
The corresponding values for `O=C(CC12CC3CC(C1)CC(c1ccccc1)(C3)C2)NCC(=O)N[C@@H]1CCN(Cc2ccccc2)C1` [Example A13] are 320 nM, 320 nM and 2300 nM.
The corresponding values for `O=C(CC12CC3CC(C1)CC(c1ccccc1)(C3)C2)NCC(=O)N1CC2CC1CN2Cc1ccccc1` (stereo not drawn) [Example A14] are 200 nM, 230 nM and 6200 nM.
The corresponding values for `O=C(N[C@H]1CCN(Cc2ccccc2)C1)C12CC3CC(C1)CC(c1ccccc1)(C3)C2` [Example A15] are 1700 nM, 2600 nM and greater than 10000 nM.
Turning to `O=C(CNC(=O)C12CC3CC(C1)CC(c1ccccc1)(C3)C2)N1CCN(Cc2ccccc2)CC1` [Example A16], the EC50 in data set [1] came out at 110 nM; in data set [2] it was 350 nM. In “in vitro”, this compound had a CC50 of 12900 nM.
The corresponding values for `O=C(CC12CC3CC(C1)CC(c1ccccc1)(C3)C2)NCC(=O)N1CCN(Cc2ccccc2)CC1` [Example A17] are 930 nM, 480 nM and greater than 10000 nM.
The corresponding values for `O=C(N[C@@H]1CCN(Cc2ccccc2)C1)C12CC3CC(C1)CC(c1ccccc1)(C3)C2` [Example A19] are 290 nM, 440 nM and 3900 nM.
The matching figures for `O=C(N1CC2CC1CN2Cc1ccccc1)C12CC3CC(C1)CC(c1ccccc1)(C3)C2` (stereo not drawn) [Example A20]: 490 nM, 410 nM and 10600 nM.
`O=C(CC12CC3CC(C1)CC(c1ccccc1)(C3)C2)N[C@@H]1CCN(Cc2ccccc2)C1` [Example A24]: the EC50 in data set [1] and in data set [2] was 290 nM throughout. In “in vitro”, this compound registered a CC50 of 7200 nM.
Take `CN1CCN(C(=O)C23CC4CC(C2)CC(c2ccccc2)(C4)C3)CC1` [Example A25]: the EC50 was 450 nM in data set [1] and 190 nM in data set [2]. Moreover, the CC50 in the data set “in vitro” was greater than 10000 nM.
The corresponding values for `CN1CCC(N(C)C(=O)C23CC4CC(C2)CC(c2ccccc2)(C4)C3)CC1` [Example A27] are 280 nM, 140 nM and greater than 10000 nM.
On to `O=C(N1CCN(Cc2ccccc2)CC1)C12CC3CC(CC1C3)C2` [Example A28], for which the EC50 in data set [1] and in data set [2] was greater than 10000 nM throughout. Further, the CC50 in “in vitro” was greater than 10000 nM.
For `O=C(N1CCN(Cc2ccccc2)CC1)C12CC3CC(C1)CC(c1ccccc1)(C3)C2` [Example A29], the EC50 came out at 340 nM in data set [1] and 270 nM in data set [2]. Besides, in the data set “in vitro”, the CC50 came to 5800 nM.
For the compound `O=C(CC12CC3CC(C1)CC(c1ccccc1)(C3)C2)N1CCN(Cc2ccccc2)CC1` [Example A30], the half-maximal effective concentration (EC50) in data set [1] is 340 nM; in data set [2] it was 220 nM. In the data set “in vitro”, this compound yielded a CC50 of 7500 nM.
The corresponding values for `O=C(C1C2CC3CC(C2)CC1C3)N1CCN(Cc2ccccc2)CC1` (stereo not drawn) [Example A31] are greater than 10000 nM, greater than 10000 nM and greater than 10000 nM.
The matching figures for `O=C(CC12CC3CC(C1)CC(c1ccccc1)(C3)C2)NC1CCN(Cc2ccccc2)CC1` [Example A32]: 200 nM, 260 nM and 1600 nM.
The matching figures for `O=C(CC12CC3CC(C1)CC(c1ccccc1)(C3)C2)N1CC2CC1CN2Cc1ccccc1` (stereo not drawn) [Example A33]: 320 nM, 300 nM and 2200 nM.
With `O=C(N[C@@H]1CCCN(Cc2ccccc2)C1)C12CC3CC(C1)CC(c1ccccc1)(C3)C2` [Example A34], the EC50 was found to be 170 nM in data set [1] and 220 nM in data set [2]. Further, the CC50 in the data set “in vitro” came to 1100 nM.
